Numbered stars: 1 amine (or outer) side, 2 acyl side, 3 side chain; on linkers, the order of the positions; unused ones are H or OH. Bridge positions count the residues as written; N and C are the ends. Square brackets hold non-standard residues; d marks the D form. Side chains are listed from the residue outwards. Peptide text beside a SMILES is read from it. I, II: the chains in the order shown. * marks the point of attachment. C18 diacid = O=C(O)CCCCCCCCCCCCCCCCC(=O)*; γGlu = O=C(O)[C@H](CCC(=O)[*:2])N[*:1]; Ac4c = NC1(C(=O)O)CCC1; AEEA = NCCOCCOCC(=O)O; Aib = CC(C)(N)C(=O)O

This data set is described as follows: Thioflavin T (ThT) fibrillation assay for physical stability. Particulars: 250 μM in 10 mM HEPES buffer, pH 7.5, 37° C., shaking 960 rpm. The class given is physicochemical. The procedure, abridged: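 Peptide at 250 μM in 10 mM HEPES pH 7.5 with 1 μM ThT, at 37° C with 960 rpm orbital shaking. Fluorescence (ex 444/em 485 nm) read every 20 min after 10 min pre-incubation; sigmoidal fit gives lag time (t0−2τ) and kapp (1/τ). Recovery is RP-HPLC peptide in the centrifuged, 0.22 μm-filtered supernatant as % of initial.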
`CC(C)C[C@H](NC(=O)[C@H](CC(=O)O)NC(=O)[C@H](CC(C)C)NC(=O)[C@H](Cc1ccc(O)cc1)NC(=O)[C@H](CCCCN)NC(=O)[C@H](CO)NC(=O)[C@H](CC(C)C)NC(=O)[C@H](CC(=O)O)NC(=O)[C@H](CO)NC(=O)[C@@H](NC(=O)[C@H](Cc1ccccc1)NC(=O)[C@@H](NC(=O)CNC(=O)[C@H](CCC(N)=O)NC(=O)C(C)(C)NC(=O)[C@@H](N)Cc1c[nH]cn1)[C@@H](C)O)[C@@H](C)O)C(=O)N[C@@H](CCCCN)C(=O)N[C@@H](CCCNC(=N)N)C(=O)N[C@@H](C)C(=O)N[C@@H](CCCNC(=N)N)C(=O)N[C@@H](CCC(=O)O)C(=O)N[C@@H](Cc1ccccc1)C(=O)N[C@H](C(=O)N[C@@H](CCC(N)=O)C(=O)N[C@@H](Cc1c[nH]c2ccccc12)C(=O)N[C@@H](CC(C)C)C(=O)N[C@@H](CC(C)C)C(=O)N[C@@H](CCCCNC(=O)CC[C@H](NC(=O)CC[C@H](NC(=O)COCCOCCNC(=O)COCCOCCNC(=O)CC[C@H](NC(=O)CCCCCCCCCCCCCCCCC(=O)O)C(=O)O)C(=O)O)C(=O)O)C(=O)N[C@H](C(N)=O)[C@@H](C)O)C(C)C` [Example 26, N^ε28-[(4S)-4-carboxy-4-[[(4S)-4-carboxy-4-[[2-[2-[2-[[2-[2-[2-[[(4S)-4-carboxy-4-(17-carboxyheptadecanoylamino)butanoyl]amino]ethoxy]ethoxy]-acetyl]amino]ethoxy]ethoxy]acetyl]amino]butanoyl]amino]butanoyl]-[Aib2,Leu10,Leu16,Lys17,Arg20,Glu21, Leu27,Lys28]-Glucagon amide] (H-H[Aib]QGTFTSDLSKYLDLKRAREFVQWLLK([γGlu-γGlu-AEEA-AEEA-γGlu-C18 diacid])T-NH2) came in with a THT assay Lag time (Ex. 76) of 45 h.

`CC(C)C[C@H](NC(=O)[C@H](CC(=O)O)NC(=O)[C@H](CC(C)C)NC(=O)[C@H](Cc1ccc(O)cc1)NC(=O)[C@H](CCCCN)NC(=O)[C@H](CO)NC(=O)[C@H](CC(C)C)NC(=O)[C@H](CC(=O)O)NC(=O)[C@H](CO)NC(=O)[C@@H](NC(=O)[C@H](Cc1ccccc1)NC(=O)[C@@H](NC(=O)CNC(=O)[C@H](CCC(N)=O)NC(=O)C(C)(C)NC(=O)[C@@H](N)Cc1c[nH]cn1)[C@@H](C)O)[C@@H](C)O)C(=O)N[C@@H](CCCNC(=N)N)C(=O)N[C@@H](CCCNC(=N)N)C(=O)N[C@@H](C)C(=O)N[C@@H](CCCNC(=N)N)C(=O)N[C@@H](CC(=O)O)C(=O)N[C@@H](Cc1ccccc1)C(=O)N[C@H](C(=O)N[C@@H](CCC(N)=O)C(=O)N[C@@H](Cc1c[nH]c2ccccc12)C(=O)N[C@@H](CC(C)C)C(=O)N[C@@H](CC(C)C)C(=O)N[C@@H](CCCCNC(=O)CNC(=O)[C@H](CO)NC(=O)[C@H](CCC(=O)O)NC(=O)[C@H](CO)NC(=O)CC[C@H](NC(=O)CC[C@H](NC(=O)CCCCCCCCCCCCCCCCC(=O)O)C(=O)O)C(=O)O)C(=O)N[C@H](C(N)=O)[C@@H](C)O)C(C)C` [Example 55, N^ε28-[2-[[(2S)-2-[[(2S)-4-carboxy-2-[[(2S)-2-[[(4S)-4-carboxy-4-[[(4S)-4-carboxy-4-(17-carboxyheptadecanoylamino)butanoyl]amino]butanoyl]amino]-3-hydroxypropanoyl]amino]butanoyl]amino]-3-hydroxypropanoyl]amino]acetyl]-[Aib2,Leu10,Leu16,Arg20,Leu27,Lys28]-Glucagon amide] (H-H[Aib]QGTFTSDLSKYLDLRRARDFVQWLLK([Gly-Ser-Glu-Ser-γGlu-γGlu-C18 diacid])T-NH2; N-terminus assumed) showed a THT assay Lag time (Ex. 76) of 45 h.

As to `CC(C)C[C@H](NC(=O)[C@H](CC(=O)O)NC(=O)[C@H](CC(C)C)NC(=O)[C@H](Cc1ccc(O)cc1)NC(=O)[C@H](CCCNC(=N)N)NC(=O)[C@H](CO)NC(=O)[C@H](CC(C)C)NC(=O)[C@H](CC(=O)O)NC(=O)[C@H](CO)NC(=O)[C@@H](NC(=O)[C@H](Cc1ccccc1)NC(=O)[C@@H](NC(=O)CNC(=O)[C@H](CCC(N)=O)NC(=O)C1(NC(=O)[C@@H](N)Cc2c[nH]cn2)CCC1)[C@@H](C)O)[C@@H](C)O)C(=O)N[C@@H](CCCNC(=N)N)C(=O)N[C@@H](CCCNC(=N)N)C(=O)N[C@@H](C)C(=O)N[C@@H](CCCNC(=N)N)C(=O)N[C@@H](CC(=O)O)C(=O)N[C@@H](Cc1ccccc1)C(=O)N[C@H](C(=O)N[C@@H](CCC(N)=O)C(=O)N[C@@H](Cc1c[nH]c2ccccc12)C(=O)N[C@@H](CC(C)C)C(=O)N[C@@H](CC(C)C)C(=O)N[C@@H](CCCCNC(=O)CC[C@H](NC(=O)CC[C@H](NC(=O)COCCOCCNC(=O)COCCOCCNC(=O)CC[C@H](NC(=O)CC[C@H](NC(=O)CCCCCCCCCCCCCCCCC(=O)O)C(=O)O)C(=O)O)C(=O)O)C(=O)O)C(=O)N[C@H](C(N)=O)[C@@H](C)O)C(C)C` [Example 46, N^ε28-[(4S)-4-carboxy-4-[[(4S)-4-carboxy-4-[[2-[2-[2-[[2-[2-[2-[[(4S)-4-carboxy-4-[[(4S)-4-carboxy-4-(17-carboxyheptadecanoylamino)butanoyl]amino]butanoyl]amino]ethoxy]ethoxy]acetyl]amino]ethoxy]ethoxy]acetyl]amino]butanoyl]amino]butanoyl]-[Acb2,Leu10,Arg12,Leu16,Arg20,Leu27,Lys28]-Glucagon amide] (H-H[Ac4c]QGTFTSDLSRYLDLRRARDFVQWLLK([γGlu-γGlu-AEEA-AEEA-γGlu-γGlu-C18 diacid])T-NH2; N-terminus assumed), the THT assay Lag time (Ex. 76) was 45 h.

In turn, `CC(C)C[C@H](NC(=O)[C@H](Cc1ccc(O)cc1)NC(=O)[C@H](CCCCN)NC(=O)[C@H](CO)NC(=O)[C@H](CC(C)C)NC(=O)[C@H](CC(=O)O)NC(=O)[C@H](CO)NC(=O)[C@@H](NC(=O)[C@H](Cc1ccccc1)NC(=O)[C@@H](NC(=O)CNC(=O)[C@H](Cc1c[nH]cn1)NC(=O)C(C)(C)NC(=O)[C@@H](N)Cc1c[nH]cn1)[C@@H](C)O)[C@@H](C)O)C(=O)N[C@@H](CCC(=O)O)C(=O)N[C@@H](CO)C(=O)N[C@@H](CCCNC(=N)N)C(=O)N[C@@H](CCCNC(=N)N)C(=O)N[C@@H](C)C(=O)N[C@@H](CCCNC(=N)N)C(=O)N[C@@H](CCC(=O)O)C(=O)N[C@@H](Cc1ccccc1)C(=O)N[C@H](C(=O)N[C@@H](CCC(N)=O)C(=O)N[C@@H](Cc1c[nH]c2ccccc12)C(=O)N[C@@H](CC(C)C)C(=O)N[C@@H](CC(C)C)C(=O)N[C@@H](CCCCNC(=O)CC[C@H](NC(=O)CC[C@H](NC(=O)COCCOCCNC(=O)COCCOCCNC(=O)CC[C@H](NC(=O)CCCCCCCCCCCCCCCCC(=O)O)C(=O)O)C(=O)O)C(=O)O)C(=O)N[C@H](C(N)=O)[C@@H](C)O)C(C)C` [Example 33, N^ε28-[(4S)-4-carboxy-4-[[(4S)-4-carboxy-4-[[2-[2-[2-[[2-[2-[2-[[(4S)-4-carboxy-4-(17-carboxyheptadecanoylamino)butanoyl]amino]ethoxy]ethoxy]acetyl]amino]ethoxy]ethoxy]acetyl]amino]butanoyl]amino]butanoyl]-[Aib2,His3,Leu10,Glu15,Arg20,Glu21,Leu27,Lys28]-Glucagon amide] (H-H[Aib]HGTFTSDLSKYLESRRAREFVQWLLK([γGlu-γGlu-AEEA-AEEA-γGlu-C18 diacid])T-NH2; N-terminus assumed) displayed a THT assay Lag time (Ex. 76) of 45 h.

With `CC(C)C[C@H](NC(=O)[C@H](Cc1ccc(O)cc1)NC(=O)[C@H](CCCCN)NC(=O)[C@H](CO)NC(=O)[C@H](CC(C)C)NC(=O)[C@H](CC(=O)O)NC(=O)[C@H](CO)NC(=O)[C@@H](NC(=O)[C@H](Cc1ccccc1)NC(=O)[C@@H](NC(=O)CNC(=O)[C@H](CCC(N)=O)NC(=O)C1(NC(=O)[C@@H](N)Cc2c[nH]cn2)CCC1)[C@@H](C)O)[C@@H](C)O)C(=O)N[C@@H](CCC(=O)O)C(=O)N[C@@H](CCC(=O)O)C(=O)N[C@@H](CCCNC(=N)N)C(=O)N[C@@H](CCCNC(=N)N)C(=O)N[C@@H](C)C(=O)N[C@@H](CCCNC(=N)N)C(=O)N[C@@H](CC(=O)O)C(=O)N[C@@H](Cc1ccccc1)C(=O)N[C@H](C(=O)N[C@@H](CCC(N)=O)C(=O)N[C@@H](Cc1c[nH]c2ccccc12)C(=O)N[C@@H](CC(C)C)C(=O)N[C@@H](CC(C)C)C(=O)N[C@@H](CCCCNC(=O)CNC(=O)[C@H](CO)NC(=O)[C@H](CCC(=O)O)NC(=O)CNC(=O)[C@H](CO)NC(=O)CC[C@H](NC(=O)CC[C@H](NC(=O)CCCCCCCCCCCCCCCCC(=O)O)C(=O)O)C(=O)O)C(=O)N[C@H](C(N)=O)[C@@H](C)O)C(C)C` [Example 16, N^ε28-[2-[[(2S)-2-[[(2S)-4-carboxy-2-[[2-[[(2S)-2-[[(4S)-4-carboxy-4-[[(4S)-4-carboxy-4-(17-carboxyheptadecanoylamino)butanoyl]amino]butanoyl]amino]-3-hydroxypropanoyl]amino]acetyl]amino]butanoyl]amino]-3-hydroxypropanoyl]amino]acetyl]-[Acb2,Leu10,Glu15,Glu16,Arg20,Leu27,Lys28]-Glucagon amide] (I: H-H[Ac4c]QGTFTSDLSKYLEERRARDFVQWLLKT-NH2 / II: {C18 diacid-γGlu-γGlu}-SGESG; amide I:28-II:C; N-terminus assumed), the THT assay Lag time (Ex. 76) was 45 h.

Values taken from US9474790B2, “Stable, protracted GLP-1/glucagon receptor co-agonists for medical use” (Novo Nordisk A/S, priority 2013, dated 2016).
